Results as given in patent US8524876B2, “RNAi molecule targeting thymidylate synthase and application thereof” (Delta-Fly Pharma, Inc., priority 2009, dated 2013).

Test system: TS mRNA
Assay: Inhibition of TS expression by siRNA in DLD-1/5FU cells, Taqman real-time PCR
Type: cell-based, human
Settings: 72 hours after transfection; for effects of inhibiting TS expression (in words): siRNA 25 nM
Method: The DLD-1/5FU human colorectal cancer cell lines (Int. J. Oncol., 2000; 17: 277-83) that had been resported to be resistant to 5-FU were cultured in a 6-cm culture dish for 24 hours until the cells reached 50% to 60% confluence.
Subsequently, siRNA molecules (i.e., TS-siRNA1 molecules (sense strand: SEQ ID NO: 1; antisense strand: SEQ ID NO: 2), TS-siRNA2 molecules (sense strand: SEQ ID NO: 3; antisense strand: SEQ ID NO: 4), and TS-siRNA3 molecules (sense strand: SEQ ID NO: 5; antisense strand: SEQ ID NO: 6)) were chemically synthesized, and 2.5 ml of a solution containing each of the above siRNA molecules (final concentration: 25 nM) and 25 μl of TransIT-TKO Transfection Reagent (Minis) was transfected into the above cells in accordance with a conventional technique. Scrambled siRNA (TS-Scra1) was used as a negative control.
The effects of siRNA molecules on inhibition of TS expression were inspected via Taqman real-time PCR (ABI PRISM 7700 Sequence Detection System; Applied Biosystems) 72 hours after transfection. The Assays-on-Demand Gene Expression Assay Mix (assay ID Hs00426591_ml; PCR product size: 87 bp; Applied Biosystems) was used for TS primers and probes. GAPDH was used as the internal standard (Assays-on-Demand Gene Expression System; assay ID: Hs99999905_ml; PCR product size: 122 bp; Applied Biosystems).

Substance | effects on inhibition of TS expression (siRNA final concentration 25 nM, GAPDH internal standard) | effects of inhibiting TS expression (in words)
TS-siRNA1: chemically synthesized siRNA targeting TS; sense strand SEQ ID NO: 1, antisense strand SEQ ID NO: 2 (sense GUAACACCAUCGAUCAUGA; antisense UCAUGAUCGAUGGUGUUAC; listed as RNA, chemistry not given here) | 83.5±1.3% | –
TS-siRNA2: chemically synthesized siRNA targeting TS; sense strand SEQ ID NO: 3, antisense strand SEQ ID NO: 4 (sense GAAUACAGAGAUAUGGAAU; antisense AUUCCAUAUCUCUGUAUUC; listed as RNA, chemistry not given here) | – | exhibited effects of inhibiting TS expression
TS-siRNA3: chemically synthesized siRNA targeting TS; sense strand SEQ ID NO: 5, antisense strand SEQ ID NO: 6 (sense CGAUCAUGAUGUAGAGUGU; antisense ACACUCUACAUCAUGAUCG; listed as RNA, chemistry not given here) | – | exhibited effects of inhibiting TS expression
